Tests used:
Glucagon receptor [1] = target: T1, Glucagon receptor (Rattus norvegicus, UniProt P30082); assay: Effective concentration was determined in cAMP accumulation assay using isolated hepatocytes in the presence rolipram.; type: functional, cell-based; settings: hepatocyte
Glucagon receptor [2] = target: T1, Glucagon receptor; assay: pA2 value against Glucagon Receptor; settings: read-out: pA2 (converted)
Glucagon receptor [3] = target: T1, Glucagon receptor; assay: (§1) Binding affinity towards Glucagon receptor in rat liver plasma membranes by displacement of 125 I-labelled glucagon; type: cell membranes
Glucagon receptor [4] = target: T1, Glucagon receptor; assay: as §1; type: cell membranes, Plasma Membrane

T1 sequence (P30082 whole entry): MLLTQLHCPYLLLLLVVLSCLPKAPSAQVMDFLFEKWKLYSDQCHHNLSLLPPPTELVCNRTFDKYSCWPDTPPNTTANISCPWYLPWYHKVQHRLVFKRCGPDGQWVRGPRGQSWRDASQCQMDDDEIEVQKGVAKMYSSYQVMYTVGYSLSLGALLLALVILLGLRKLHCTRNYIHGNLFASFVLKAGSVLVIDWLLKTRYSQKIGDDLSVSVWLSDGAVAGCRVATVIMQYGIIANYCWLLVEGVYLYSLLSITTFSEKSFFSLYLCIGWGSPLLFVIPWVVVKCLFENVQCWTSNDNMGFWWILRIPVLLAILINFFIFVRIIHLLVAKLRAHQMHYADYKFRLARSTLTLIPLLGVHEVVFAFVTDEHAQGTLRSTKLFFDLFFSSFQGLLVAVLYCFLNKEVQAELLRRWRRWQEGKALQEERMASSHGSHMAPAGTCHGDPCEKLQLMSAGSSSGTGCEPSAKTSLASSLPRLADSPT

Row | EC50 (Glucagon receptor [1]) | Kb (Glucagon receptor [2]) | IC50 (Glucagon receptor [3]) | IC50 (Glucagon receptor [4]) | Compound
1 | Not Active | 562 nM | 19 nM |  | CSCC[C@H](NC(=O)[C@H](CC(C)C)NC(=O)[C@H](Cc1c[nH]c2ccccc12)NC(=O)[C@H](CCC(N)=O)NC(=O)[C@@H](NC(=O)[C@H](Cc1ccccc1)NC(=O)[C@H](CC(=O)O)NC(=O)[C@H](CCC(N)=O)NC(=O)[C@H](C)NC(=O)[C@H](CCCN=C(N)N)NC(=O)[C@H](CCCN=C(N)N)NC(=O)[C@H](CO)NC(=O)[C@H](CC(=O)O)NC(=O)[C@H](CC(C)C)NC(=O)[C@H](Cc1ccc(O)cc1)NC(=O)[C@H](CCCCN)NC(=O)[C@H](CO)NC(=O)[C@H](Cc1ccc(O)cc1)NC(=O)[C@H](CCC(=O)O)NC(=O)[C@H](CO)NC(=O)[C@@H](NC(=O)[C@H](Cc1c[nH]c2ccccc12)NC(=O)[C@@H](NC(=O)CNC(=O)[C@H](CCC(N)=O)NC(=O)[C@@H](N)CO)[C@@H](C)O)[C@@H](C)O)C(C)C)C(=O)N[C@@H](CC(N)=O)C(=O)N[C@H](C(N)=O)[C@@H](C)O
2 | Not Active | 631 nM | 40 nM |  | CSCC[C@H](NC(=O)[C@H](CC(C)C)NC(=O)[C@H](Cc1c[nH]c2ccccc12)NC(=O)[C@H](CCC(N)=O)NC(=O)[C@@H](NC(=O)[C@H](Cc1ccccc1)NC(=O)[C@H](CC(=O)O)NC(=O)[C@H](CCC(N)=O)NC(=O)[C@H](C)NC(=O)[C@H](CCCN=C(N)N)NC(=O)[C@H](CCCN=C(N)N)NC(=O)[C@H](CO)NC(=O)[C@H](CC(=O)O)NC(=O)[C@H](CC(C)C)NC(=O)[C@H](Cc1ccc(O)cc1)NC(=O)[C@H](CCCCN)NC(=O)[C@H](CO)NC(=O)[C@H](Cc1ccc(O)cc1)NC(=O)[C@H](CCC(=O)O)NC(=O)[C@H](CO)NC(=O)[C@@H](NC(=O)[C@H](Cc1ccc(O)cc1)NC(=O)[C@@H](NC(=O)CNC(=O)[C@H](CCC(N)=O)NC(=O)[C@@H](N)CO)[C@@H](C)O)[C@@H](C)O)C(C)C)C(=O)N[C@@H](CC(N)=O)C(=O)N[C@H](C(N)=O)[C@@H](C)O
3 |  | 398 nM |  | 126 nM | CSCC[C@H](NC(=O)[C@H](CC(C)C)NC(=O)[C@H](Cc1c[nH]c2ccccc12)NC(=O)[C@H](CCC(N)=O)NC(=O)[C@@H](NC(=O)[C@H](Cc1ccccc1)NC(=O)[C@H](CC(=O)O)NC(=O)[C@H](CCC(N)=O)NC(=O)[C@H](C)NC(=O)[C@H](CCCNC(=N)N)NC(=O)[C@H](CCCNC(=N)N)NC(=O)[C@H](CO)NC(=O)[C@H](CC(=O)O)NC(=O)[C@H](CC(C)C)NC(=O)[C@H](Cc1ccc(O)cc1)NC(=O)[C@H](CCCCN)NC(=O)[C@H](CO)NC(=O)[C@H](Cc1ccc(O)cc1)NC(=O)[C@H](CCC(=O)O)NC(=O)[C@H](CO)NC(=O)[C@@H](NC(=O)[C@H](C)NC(=O)[C@@H](NC(=O)CNC(=O)[C@H](CCC(N)=O)NC(=O)[C@@H](N)CO)[C@@H](C)O)[C@@H](C)O)C(C)C)C(=O)N[C@@H](CC(N)=O)C(=O)N[C@H](C(N)=O)[C@@H](C)O
